From US9388149B2, “Disubstituted 3,4-diamino-3-cyclobutene-1,2-dione compounds for use in the treatment of chemokine-mediated diseases” (GALDERMA RESEARCH & DEVELOPMENT, priority 2011, dated 2016) come the findings set out here.

The target in series [1] is CXCR1 receptor (Homo sapiens (Human), UniProt P25024). The experiment in a line: β-arrestin recruitment test, U2OS hCXCR1 β-arrestin cells stimulated with CXCL8. Conditions: inhibition of CXCL8 (10 nM) induced β-arrestin 2 recruitment; *9999 signifies not active. Type of series: cell-based. Here is the method: (§1) The in vitro affinity of the compounds of the present invention for the CXCR1 and CXCR2 receptors was determined on a functional test of the β-arrestin recruitment after receptor activation type.
(§2) β-Arrestin recruitment test: “PathHunter HEK293-CXCR2” or “U2OS hCXCR1 β-arrestin” cells (DiscoveRx Corporation) were seeded overnight at 10 000 cells/well (384-well format) in 20 μl of Opti MEM I medium. A preincubation with the antagonist or the vehicle for 30 min at 37° C. and 5% CO2 was followed by 60 minutes of stimulation with CXCL8 at 37° C. and 5% CO2. The cells were then placed at ambient temperature for 30 minutes. The PathHunter detection reagent (DiscoveRx Corporation) was added. […] The data were analyzed by means of a non-linear curve procedure using the XLFit4 exploitation software (IDBS) and the IC50 values were determined.
(Activated receptors often draw arrestin, which recruitment assays turn into a signal.)

Series [2] deals with CXCR2 receptor (Homo sapiens (Human), UniProt P25025). The experiment in a line: β-arrestin recruitment test, PathHunter HEK293-CXCR2 cells stimulated with CXCL8. In kind it is cell-based. The settings on record: inhibition of CXCL8 (10 nM) induced β-arrestin 2 recruitment; *9999 signifies not active. Here is the method:
as §1, §2

Series [3] can be described thus: Metabolic stabilities in hepatocytes. Type of series: in vitro ADME. Conditions: compound 1 μM, sampling up to 24 hours; for Half-life time: human hepatocytes. Here is the method: The human hepatocytes were supplied by Biopredic in 24-well plates.
The samples of incubation medium after addition of the test compound were taken at times t=0, 1, 2, 4, 6 and 24 hours.

Series [4] is described as follows: Metabolic stabilities in hepatic microsomes. Conditions: hepatic microsomes 0.5 mg/ml protein, compound 1 μM, sampling up to 60 minutes.
Procedure: Hepatic microsomes (Becton Dickinson) were incubated at a protein concentration of 0.5 mg/ml in the reaction medium.
The reaction medium of the microsomes was composed of phosphate buffer, pH: 7.4 at 100 mM, of MgCl2 at 100 mM (50/50), of an ATP-generating system composed of a mixture of nicotinamide adenine diphosphate (NADP), of glucose-6-phosphate (G6P) at 1 mg/ml and of glucose-6-phosphate dehydrogenase (G6PDH) at 4 U/ml. The compounds were tested at 1 μM (0.1% DMSO).
The samples of incubation medium after addition of the microsomes were taken at times 5, 10, 15, 30 and 60 minutes. At each time, the metabolic reaction was stopped by adding methanol (1 volume incubation medium/3 volumes of methanol). The disappearance of the parent product was measured by LC/MS/MS analysis. The time for which 50% of parent product disappeared (T1/2) was calculated from the kinetics of disappearance of the parent product as a function of time.
Series [5] has as its target CXCR3 (Homo sapiens (Human), UniProt P49682). The experiment in a line: Calcium flux on Chem-1 cells expressing the chemokine receptor (FLIPR TETRA), antagonist mode. The settings on record: IC50 CXCR3, antagonist activity, reference agonist at AC80. (In general: Calcium flux is commonly read through the fluorescence of an indicator in the cells.)
Procedure: (§3) Measurement of calcium flux on cells: The experiments were carried out on the FLIPR TETRA® platform from Molecular Devices.
(§4) Each cell line expressing a chemokine receptor was established on the basis of the Chem-1 cell stably expressing the recombinant form of the chemokine receptor and also an associated G protein, with the aim of coupling the receptor to the calcium signalling pathway.
(§5) 21 receptors belonging to the chemokine receptor family (CCRs and CXCRs) were analyzed.
Series [6] concerns the target CCR4 (Homo sapiens (Human), UniProt P51679). Described as above.
Procedure: as §3, §4, §5

What is called IC50 is the concentration needed to halve the response being measured. Broadly, the half-life is the time in which the quantity being followed falls by half.

Sequence of CXCR2 receptor (P25025 whole entry): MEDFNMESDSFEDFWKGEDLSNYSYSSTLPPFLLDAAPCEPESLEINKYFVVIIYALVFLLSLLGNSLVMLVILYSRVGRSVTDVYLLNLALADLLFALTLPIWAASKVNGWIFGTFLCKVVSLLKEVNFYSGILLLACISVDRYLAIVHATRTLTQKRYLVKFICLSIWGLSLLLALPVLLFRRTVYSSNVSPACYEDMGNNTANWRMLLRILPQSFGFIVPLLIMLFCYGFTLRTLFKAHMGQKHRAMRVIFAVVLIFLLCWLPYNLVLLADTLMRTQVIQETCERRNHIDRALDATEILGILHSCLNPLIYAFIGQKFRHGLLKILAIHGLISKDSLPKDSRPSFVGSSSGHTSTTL
Sequence of CXCR1 receptor (P25024 whole entry): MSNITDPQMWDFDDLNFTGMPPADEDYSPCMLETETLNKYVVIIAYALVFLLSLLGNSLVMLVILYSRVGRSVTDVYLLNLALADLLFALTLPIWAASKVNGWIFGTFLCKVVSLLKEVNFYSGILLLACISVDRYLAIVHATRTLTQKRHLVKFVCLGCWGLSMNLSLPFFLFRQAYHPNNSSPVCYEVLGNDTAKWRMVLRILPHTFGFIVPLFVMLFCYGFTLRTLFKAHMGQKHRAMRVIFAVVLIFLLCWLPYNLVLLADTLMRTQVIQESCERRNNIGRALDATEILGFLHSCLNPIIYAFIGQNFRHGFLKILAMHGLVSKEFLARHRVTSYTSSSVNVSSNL
Sequence of CXCR3 (P49682 whole entry): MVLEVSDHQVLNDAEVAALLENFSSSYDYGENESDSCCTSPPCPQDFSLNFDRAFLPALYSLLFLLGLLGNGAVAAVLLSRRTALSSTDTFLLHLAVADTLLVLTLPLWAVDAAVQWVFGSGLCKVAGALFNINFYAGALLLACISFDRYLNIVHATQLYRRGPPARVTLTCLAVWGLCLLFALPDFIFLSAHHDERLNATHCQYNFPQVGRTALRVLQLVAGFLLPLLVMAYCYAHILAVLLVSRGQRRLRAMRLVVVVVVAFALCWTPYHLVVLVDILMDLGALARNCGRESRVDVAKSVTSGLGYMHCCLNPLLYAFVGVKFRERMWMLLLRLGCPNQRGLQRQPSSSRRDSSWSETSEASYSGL
Sequence of CCR4 (P51679 whole entry): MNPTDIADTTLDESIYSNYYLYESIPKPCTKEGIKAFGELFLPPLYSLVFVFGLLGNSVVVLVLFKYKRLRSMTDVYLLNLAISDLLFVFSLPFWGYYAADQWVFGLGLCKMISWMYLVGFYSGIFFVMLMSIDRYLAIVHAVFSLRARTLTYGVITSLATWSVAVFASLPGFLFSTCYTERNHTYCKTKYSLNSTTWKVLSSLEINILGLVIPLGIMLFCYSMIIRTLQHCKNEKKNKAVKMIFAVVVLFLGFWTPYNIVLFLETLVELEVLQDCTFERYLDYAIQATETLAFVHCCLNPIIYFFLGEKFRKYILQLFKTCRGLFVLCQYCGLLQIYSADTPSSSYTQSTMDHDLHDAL

As to `COC(=O)CN(C)C(=O)c1cccc(Nc2c(NC(c3ccc(C)o3)C3CCCS3)c(=O)c2=O)c1O` (single isomer, unassigned) [9 (Diastereoisomer 1), methyl {[2-hydroxy-3-(2-{[(5-methylfuran-2-yl)-(tetrahydrothiophen-2-yl)methyl]amino}-3,4-dioxocyclobut-1-enylamino)benzoyl]methylamino}acetate], the results for the IC50 in series [1] and in series [2] were 580 nM and 153 nM, respectively.

In series [2], `Cc1ccc(C(Nc2c(Nc3cccc(C(=O)N(C)C)c3O)c(=O)c2=O)C2(C)CCCO2)o1` (single isomer, unassigned) [Example 1 (Enantiomer 1 of diastereoisomer 2), 2-Hydroxy-N,N-dimethyl-3-(2-{[(5-methylfuran-2-yl)-(2-methyltetrahydrofuran-2-yl)methyl]amino}-3,4-dioxo-cyclobut-1-enylamino)benzamide] gave an IC50 of 10000 nM.

`Cc1ccc(C(Nc2c(Nc3cccc(C(=O)N(C)C)c3O)c(=O)c2=O)C2(C)CCCO2)o1` (single isomer, unassigned) [Example 1 (diastereoisomer 1), 2-hydroxy-N,N-dimethyl-3-(2-{[(5-methylfuran-2-yl)-(2-methyltetrahydrofuran-2-yl)methyl]amino}-3,4-dioxocyclobut-1-enylamino)benzamide] came in with an IC50 in series [2] of 89 nM.

As to `Cc1ccc(C(Nc2c(Nc3cccc(C(=O)N(C)C)c3O)c(=O)c2=O)C2CCCS2)o1` (single isomer, unassigned) [Example 2 (Enantiomer 1 of diastereoisomer 1), 2-Hydroxy-N,N-dimethyl-3-(2-{[(5-methylfuran-2-yl)-(tetrahydrothiophen-2-yl)methyl]amino}-3,4-dioxo-cyclobut-1-enylamino)benzamide], the IC50 in series [2] came out at 273 nM.

In turn, `Cc1ccc(C(Nc2c(Nc3cccc(C(=O)N(C)C)c3O)c(=O)c2=O)C2CCCS2)o1` (single isomer, unassigned) [Example 2 (Enantiomer 1 of diastereoisomer 2), 2-Hydroxy-N,N-dimethyl-3-(2-{[(5-methylfuran-2-yl)-(tetrahydrothiophen-2-yl)methyl]amino}-3,4-dioxo-cyclobut-1-enylamino)benzamide] showed an IC50 in series [2] of 15 nM. The “Half-life time” value in series [3] turned out to be 3.55 h.

For `Cc1ccc(C(Nc2c(Nc3cccc(C(=O)N(C)C)c3O)c(=O)c2=O)C2CCCS2)o1` (single isomer, unassigned) [Example 2 (Enantiomer 2 of diastereoisomer 1), 2-Hydroxy-N,N-dimethyl-3-(2-{[(5-methylfuran-2-yl)-(tetrahydrothiophen-2-yl)methyl]amino}-3,4-dioxo-cyclobut-1-enylamino)benzamide], in series [2], the IC50 was 56 nM.

In series [2], `Cc1ccc(C(Nc2c(Nc3cccc(C(=O)N(C)C)c3O)c(=O)c2=O)C2CCCS2)o1` (single isomer, unassigned) [Example 2 (Enantiomer 2 of diastereoisomer 2), 2-Hydroxy-N,N-dimethyl-3-(2-{[(5-methylfuran-2-yl)-(tetrahydrothiophen-2-yl)methyl]amino}-3,4-dioxo-cyclobut-1-enylamino)benzamide] came in with an IC50 of 134 nM. For the same molecule, the “Half-life time” value in series [3] was found to be 3.82 h.

Molecule `Cc1ccc(C(Nc2c(Nc3cccc(C(=O)N(C)C)c3O)c(=O)c2=O)C2CCCS2)o1` (single isomer, unassigned) [Example 2 (diastereoisomer 1), 2-Hydroxy-N,N-dimethyl-3-(2-{[(5-methylfuran-2-yl)-(tetrahydrothiophen-2-yl)methyl]amino}-3,4-dioxo-cyclobut-1-enylamino)benzamide] yielded an IC50 in series [2] of 135 nM. In addition, the “Half-life time” value is 1.77 h in series [3] and 0.15 h in series [4].

Turning to `COC(=O)[C@H]1CCCN1C(=O)c1cccc(Nc2c(NC(c3ccc(C)o3)C3CCCS3)c(=O)c2=O)c1O` (single isomer, unassigned) [Example 6], in series [4], the “Half-life time” value is 0.083 h. In series [5], the IC50 was determined as 140 nM.

Take `Cc1ccc(C(Nc2c(Nc3cccc(C(=O)N(C)CC(F)(F)F)c3O)c(=O)c2=O)C2CCCS2)o1` (single isomer, unassigned) [Example 8 (Diastereoisomer 1)]: the IC50 was 508 nM in series [1] and 115 nM in series [2].

Regarding `Cc1ccc(C(Nc2c(Nc3cccc(C(=O)N(C)CC(F)(F)F)c3O)c(=O)c2=O)C2CCCS2)o1` (single isomer, unassigned) [Example 8 (Diastereoisomer 2)], the IC50 in series [1] was determined as 85 nM; in series [2], 47 nM.

As for `COC(=O)CN(C)C(=O)c1cccc(Nc2c(NC(c3ccc(C)o3)C3CCCS3)c(=O)c2=O)c1O` (single isomer, unassigned) [Example 9 (Diastereoisomer 2), methyl {[2-hydroxy-3-(2-{[(5-methylfuran-2-yl)-(tetrahydrothiophen-2-yl)methyl]amino}-3,4-dioxocyclobut-1-enylamino)benzoyl]methylamino}acetate], the IC50 in series [1] was determined as 89 nM; in series [2] it was 80 nM.

Regarding `Cc1ccc(C(Nc2c(Nc3cccc(C(=O)N(C)C)c3O)c(=O)c2=O)[C@@H]2COC(C)(C)O2)o1` (single isomer, unassigned) [Example 14 (Diastereoisomer 1)], the IC50 in series [1] and in series [2] was 10000 nM each time.

For the molecule `Cc1ccc(C(Nc2c(Nc3cccc(C(=O)N(C)C)c3O)c(=O)c2=O)[C@@H]2COC(C)(C)O2)o1` (single isomer, unassigned) [Example 14 (Diastereoisomer 2)], the values for the IC50 in series [1] and in series [2] were 10000 nM and 1250 nM, respectively.

Regarding `COC(=O)[C@H]1CCCN1C(=O)c1cccc(Nc2c(NC(c3ccc(C)o3)C3CCCS3)c(=O)c2=O)c1O` (single isomer, unassigned) [Example 20], the half-life at 1 μM in series [3] (human, hepatocytes, read-out: Half-life time) was 3.52 h. Moreover, the “Half-life time” value in series [4] was determined as 0.283 h. Further, the IC50 in series [6] stood at 7.2 nM; in series [5], 180 nM.

Turning to `Cc1ccc(C(Nc2c(Nc3cccc(C(=O)N(C)C)c3O)c(=O)c2=O)[C@H]2CCCO2)o1` (stereo in doubt) [Example 11, 2-hydroxy-N,N-dimethyl-3-(2-{[(R)-(5-methylfuran-2-yl)tetrahydrofuran-2-ylmethyl]amino}-3,4-dioxocyclobut-1-enylamino)benzamide], the values for the IC50 in series [1] and in series [2] were 1320 nM and 176 nM, respectively.

In the case of `Cc1ccc(C(Nc2c(Nc3cccc(C(=O)N(C)C)c3O)c(=O)c2=O)[C@@H]2CCCO2)o1` (stereo in doubt) [Example 12, 2-hydroxy-N,N-dimethyl-3-(2-{[(S)-(5-methylfuran-2-yl)tetrahydrofuran-2-ylmethyl]amino}-3,4-dioxocyclobut-1-enylamino)benzamide], the IC50 in series [1] is 483 nM; in series [2] it was 83 nM.

Consider `Cc1ccc(C(Nc2c(Nc3cccc(C(=O)N4CCC[C@H]4C(=O)OC(C)C)c3F)c(=O)c2=O)C2CCCS2)o1` (stereo partly drawn) [Example 4, Isopropyl (S)-1-[2-fluoro-3-(2-{[(5-methylfuran-2-yl)-(tetrahydrothiophen-2-yl)methyl]amino}-3,4-dioxocyclobut-1-enylamino)benzoyl]pyrrolidine-2-carboxylate], for which the IC50 in series [1] was determined as 1890 nM; in series [2], 109 nM.

For `CCOC(=O)[C@@H]1CCCN1C(=O)c1cccc(Nc2c(NC(c3ccc(C)o3)C3CCCS3)c(=O)c2=O)c1F` (stereo partly drawn) [Example 5, Ethyl (S)-1-[2-fluoro-3-(2-{[(5-methylfuran-2-yl)-(tetrahydrothiophen-2-yl)methyl]amino}-3,4-dioxocyclobut-1-enylamino)benzoyl]pyrrolidine-2-carboxylate], the values for the half-inhibitory concentration (IC50) in series [1] and in series [2] were 711 nM and 106 nM, respectively.

For the molecule `CN(C)C(=O)c1cccc(Nc2c(NC(c3ccccc3)C3CCCO3)c(=O)c2=O)c1O` (stereo not drawn) [Example 13, 3-(3,4-dioxo-2-{[phenyl(tetrahydrofuran-2-yl)methyl]amino}cyclobut-1-enylamino)-2-hydroxy-N,N-dimethylbenzamide], the IC50 in series [1] was 1150 nM; in series [2], 170 nM.

In the case of `Cc1ccc(C(Nc2c(Nc3cccn(C)c3=O)c(=O)c2=O)C2CCCS2)o1` (stereo not drawn) [Example 17, 3-{[(5-methylfuran-2-yl)-(tetrahydrothiophen-2-yl)methyl]amino}-4-(1-methyl-2-oxo-1,2-dihydropyridin-3-ylamino)cyclobut-3-ene-1,2-dione], the results for the IC50 in series [1] and in series [2] were 384 nM and 44 nM, respectively.

Turning to “Methyl (S)-1[2-fluoro-3-(2-{[(R,S)-(5-methylfuran-2-yl)((S,R)-tetrahydrothiophen-2-yl)methyl]amino}-3,4-dioxocyclobut-1-enylamino)benzoyl]pyrrolidine-2-carboxylate [Example 3 (pair of enantiomers 1 and 2)]”, the IC50 in series [1] was 812 nM; in series [2] it was 221 nM. Further, the entries for the “Half-life time” value in series [3] and in series [4] were 2.35 h and 0.05 h, respectively.
